Legend:
Format in all cases: in vivo
[1] = test system: Blumeria graminis f. sp. hordei; experiment: Test Example D: Powdery mildew on barley; details: Powdery mildew on barley, read-out: Test D control value
[2] = test system: Phytophthora infestans; experiment: whole plant or invertebrate; details: in Solanum lycopersicum, read-out: Test F control value
[3] = test system: Plasmopara viticola; experiment: Test Example G: Downy mildew on vine; details: Downy mildew on vine, 250 ppm sprayed, 2.5 ml/pot, 7 to 10 days after inoculation, read-out: Test G control value
[4] = test system: Magnaporthe grisea; experiment: whole plant or invertebrate; details: Pyricularia oryzae, in Oryza sativa, read-out: Test A control value
[5] = test system: Puccinia recondita; experiment: Test Example E: Brown rust on wheat; details: Brown rust on wheat, read-out: Test E control value
[6] = test system: Botrytis cinerea; experiment: Test Example B: Gray mold on tomato; details: Gray mold on tomato, read-out: Test B control value
[7] = test system: Alternaia brassicicola; experiment: Test Example C: Alternaria sooty spot on cabbage; details: Brassica oleracea; Alternaria sooty spot on cabbage; read-out: Test C control value

With CCN1C(=O)CCC(c2cccs2)=C1c1c(F)cccc1F [compound 2, 6-(2,6-difluorophenyl)-1-ethyl-5-(thiophen-2-yl)-3,4-dihydropyridin-2(1H)-one] the pest or weed control at 250 µg/mL [1] was over 50%, the pest or weed control at 250 µg/mL [2] was under 50% and the pest or weed control at 250 ppm [3] was over 50%. The pest or weed control at 250 µg/mL [4] was over 50%, the pest or weed control at 250 µg/mL [5] was over 50% and the pest or weed control at 250 µg/mL [6] was under 50%. It also gave a pest or weed control at 250 µg/mL [7] of under 50%.
CCn1c(-c2c(F)cccc2F)c(-c2cccs2)ccc1=O [compound 5, 6-(2,6-difluorophenyl)-1-ethyl-5-(thiophen-2-yl)pyridin-2(1H)-one] showed a pest or weed control at 250 µg/mL [1] of over 50%, a pest or weed control at 250 µg/mL [2] of over 50% and a pest or weed control at 250 ppm [3] of over 50%. It also gave a pest or weed control at 250 µg/mL [4] of over 50%, a pest or weed control at 250 µg/mL [5] of over 50% and a pest or weed control at 250 µg/mL [6] of over 50%. It also gave a pest or weed control at 250 µg/mL [7] of over 50%.
CCn1c(-c2c(F)cccc2F)c(-c2ccc(Cl)s2)ccc1=O [compound 6, 5-(5-chlorothiophen-2-yl)-6-(2,6-difluorophenyl)-1-ethylpyridin-2(1H)-one] was tested, and the pest or weed control at 250 µg/mL [1] was under 50%, the pest or weed control at 250 µg/mL [2] was under 50% and the pest or weed control at 250 ppm [3] was under 50%. For the same compound, the pest or weed control at 250 µg/mL [4] was over 50%, the pest or weed control at 250 µg/mL [5] was over 50% and the pest or weed control at 250 µg/mL [6] was over 50%. It also gave a pest or weed control at 250 µg/mL [7] of over 50%.
In the case of CCn1c(-c2c(F)cccc2F)c(-c2ccc(Cl)s2)cc(Cl)c1=O [compound 7, 3-chloro-5-(5-chlorothiophen-2-yl)-6-(2,6-difluorophenyl)-1-ethylpyridin-2(1H)-one], the pest or weed control at 250 µg/mL [1] is reported as under 50%, the pest or weed control at 250 µg/mL [2] is reported as under 50% and the pest or weed control at 250 ppm [3] is reported as under 50%. The pest or weed control at 250 µg/mL [4] was over 50%, the pest or weed control at 250 µg/mL [5] was over 50% and the pest or weed control at 250 µg/mL [6] was over 50%. The pest or weed control at 250 µg/mL [7] was over 50%.
Compound CCn1c(-c2c(F)cc(F)cc2F)c(C2OCCCO2)cc(Cl)c1=O [compound 8, 3-chloro-5-(1,3-dioxan-2-yl)-1-ethyl-6-(2,4,6-trifluorophenyl)-pyridin-2(1H)-one] has a pest or weed control at 250 µg/mL [1] of under 50%, a pest or weed control at 250 µg/mL [2] of under 50% and a pest or weed control at 250 ppm [3] of over 50%. It also gave a pest or weed control at 250 µg/mL [4] of over 50%, a pest or weed control at 250 µg/mL [5] of under 50% and a pest or weed control at 250 µg/mL [6] of over 50%. It also gave a pest or weed control at 250 µg/mL [7] of over 50%.
CCn1c(-c2c(F)cccc2F)c(-c2cccnc2Cl)ccc1=O [compound 17] showed a pest or weed control at 250 µg/mL [1] of over 50%, a pest or weed control at 250 µg/mL [5] of over 50% and a pest or weed control at 250 µg/mL [6] of over 50%.
Work on CCn1c(-c2c(F)cccc2F)c(-c2cccnc2Cl)cc(Cl)c1=O [compound 18] yielded a pest or weed control at 250 µg/mL [1] of over 50%, a pest or weed control at 250 µg/mL [2] of under 50% and a pest or weed control at 250 ppm [3] of under 50%. It also gave a pest or weed control at 250 µg/mL [4] of over 50%, a pest or weed control at 250 µg/mL [5] of over 50% and a pest or weed control at 250 µg/mL [6] of over 50%. It also gave a pest or weed control at 250 µg/mL [7] of over 50%.
For CCn1c(-c2c(F)cc(F)cc2F)c(-c2ccnn2C)cc(Cl)c1=O [compound 20, 3-chloro-1-ethyl-5-(1-methyl-1H-pyrazol-5-yl)-6-(2,4,6-trifluorophenyl)pyridin-2(1H)-one], the pest or weed control at 250 µg/mL [1] was over 50%, the pest or weed control at 250 µg/mL [2] was under 50% and the pest or weed control at 250 ppm [3] was under 50%. The pest or weed control at 250 µg/mL [4] was over 50%, the pest or weed control at 250 µg/mL [5] was over 50% and the pest or weed control at 250 µg/mL [6] was over 50%. The pest or weed control at 250 µg/mL [7] was over 50%.
For CCn1c(-c2c(F)cc(F)cc2F)c(-c2c(Br)cnn2C)cc(Cl)c1=O [compound 21, 5-(4-bromo-1-methyl-1H-pyrazol-5-yl)-3-chloro-1-ethyl-6-(2,4,6-trifluorophenyl)pyridin-2(1H)-one], the pest or weed control at 250 µg/mL [1] was over 50%, the pest or weed control at 250 µg/mL [2] was under 50% and the pest or weed control at 250 ppm [3] was over 50%. For the same compound, the pest or weed control at 250 µg/mL [4] was over 50%, the pest or weed control at 250 µg/mL [5] was over 50% and the pest or weed control at 250 µg/mL [6] was over 50%. The pest or weed control at 250 µg/mL [7] was over 50%.
For CCn1c(-c2c(F)cc(OC)cc2F)c(-c2c(Br)cnn2C)cc(Cl)c1=O [compound 23, 5-(4-bromo-1-methyl-1H-pyrazol-5-yl)-3-chloro-6-(2,6-difluoro-4-methoxyphenyl)-1-ethylpyridin-2(1H)-one], the pest or weed control at 250 µg/mL [1] was over 50%, the pest or weed control at 250 µg/mL [2] was under 50% and the pest or weed control at 250 ppm [3] was under 50%. The pest or weed control at 250 µg/mL [4] was over 50%, the pest or weed control at 250 µg/mL [5] was over 50% and the pest or weed control at 250 µg/mL [6] was over 50%. The pest or weed control at 250 µg/mL [7] was over 50%.
Work on CCn1c(-c2c(F)cc(F)cc2F)c(-c2nn(C)cc2Br)cc(Cl)c1=O [compound 24, 5-(4-bromo-1-methyl-1H-pyrazol-3-yl)-3-chloro-1-ethyl-6-(2,4,6-trifluorophenyl)pyridin-2(1H)-one] yielded a pest or weed control at 250 µg/mL [1] of over 50%, a pest or weed control at 250 µg/mL [2] of under 50% and a pest or weed control at 250 ppm [3] of over 50%. The pest or weed control at 250 µg/mL [4] was over 50%, the pest or weed control at 250 µg/mL [5] was over 50% and the pest or weed control at 250 µg/mL [6] was over 50%. The pest or weed control at 250 µg/mL [7] was over 50%.
In the case of CCN1C(=O)CCC(n2cccn2)=C1c1c(F)cc(F)cc1F [compound 25, 1-ethyl-5-(1H-pyrazol-1-yl)-6-(2,4,6-trifluorophenyl)-3,4-dihydropyridin-2(1H)-one], the pest or weed control at 250 µg/mL [1] is reported as over 50%, the pest or weed control at 250 µg/mL [2] is reported as under 50% and the pest or weed control at 250 ppm [3] is reported as under 50%. It also gave a pest or weed control at 250 µg/mL [4] of under 50%, a pest or weed control at 250 µg/mL [5] of under 50% and a pest or weed control at 250 µg/mL [6] of under 50%. The pest or weed control at 250 µg/mL [7] was over 50%.
For CCn1c(-c2c(F)cc(F)cc2F)c(-n2cccn2)ccc1=O [compound 26, 1-ethyl-5-(1H-pyrazol-1-yl)-6-(2,4,6-trifluorophenyl)pyridin-2(1H)-one], the pest or weed control at 250 µg/mL [1] was over 50%, the pest or weed control at 250 µg/mL [2] was under 50% and the pest or weed control at 250 ppm [3] was under 50%. It also gave a pest or weed control at 250 µg/mL [4] of over 50%, a pest or weed control at 250 µg/mL [5] of over 50% and a pest or weed control at 250 µg/mL [6] of over 50%. For the same compound, the pest or weed control at 250 µg/mL [7] was over 50%.
In the case of CCn1c(-c2c(F)cc(F)cc2F)c(-n2cc(Cl)cn2)ccc1=O [compound 27, 5-(4-chloro-1H-pyrazol-1-yl)-1-ethyl-6-(2,4,6-trifluorophenyl)-pyridin-2(1H)-one], the pest or weed control at 250 µg/mL [1] is reported as over 50%, the pest or weed control at 250 µg/mL [2] is reported as under 50% and the pest or weed control at 250 ppm [3] is reported as under 50%. For the same compound, the pest or weed control at 250 µg/mL [4] was under 50%, the pest or weed control at 250 µg/mL [5] was over 50% and the pest or weed control at 250 µg/mL [6] was over 50%. For the same compound, the pest or weed control at 250 µg/mL [7] was over 50%.
With CCn1c(-c2c(F)cc(F)cc2F)c(-n2cncn2)cc(Cl)c1=O [compound 34, 3-chloro-1-ethyl-5-(1H-1,2,4-triazol-1-yl)-6-(2,4,6-trifluorophenyl)pyridin-2(1H)-one] the pest or weed control at 250 µg/mL [1] was over 50%, the pest or weed control at 250 µg/mL [2] was under 50% and the pest or weed control at 250 ppm [3] was under 50%. For the same compound, the pest or weed control at 250 µg/mL [4] was over 50%, the pest or weed control at 250 µg/mL [5] was over 50% and the pest or weed control at 250 µg/mL [6] was over 50%. It also gave a pest or weed control at 250 µg/mL [7] of over 50%.
CCn1c(-c2c(F)cc(F)cc2F)c(-n2ncnc2Br)cc(Cl)c1=O [compound 35, 5-(5-bromo-1H-1,2,4-triazol-1-yl)-3-chloro-1-ethyl-6-(2,4,6-trifluorophenyl)pyridin-2(1H)-one] was tested, and the pest or weed control at 250 µg/mL [1] was over 50%, the pest or weed control at 250 µg/mL [2] was under 50% and the pest or weed control at 250 ppm [3] was under 50%. For the same compound, the pest or weed control at 250 µg/mL [4] was over 50%, the pest or weed control at 250 µg/mL [5] was over 50% and the pest or weed control at 250 µg/mL [6] was over 50%. For the same compound, the pest or weed control at 250 µg/mL [7] was over 50%.
